Laboratory results from patent publication US11191855B2, “1,7-diaryl-1,6-heptadiene-3,5-dione derivatives, methods for the production and use thereof” (UNIVERSITÄTSKLINIKUM REGENSBURG, priority 2015, dated 2021).
Structures can show the parent of a compound that is named as a salt. Where two headings read alike, the source gives them in different places. Marks after values point to notes of the source that are not given here.

Tested on: E. coli ATCC 25922
Assay: Phototoxicity test c.1) (LED array 430-435 nm, CFU count by Miles and Misra)
Assay type: cell-based, Escherichia coli
Conditions: for log reduction at 10 µM / log reduction at 50 µM: Escherichia coli, ATCC25922, light or radiation study; for log reduction at 10 µM: read-out: Effectiveness against E. Coli: Reduction in CFU in log10 at concentration of 10 μM; for log reduction at 50 µM: read-out: Effectiveness against E. Coli: Reduction in CFU in log10 at concentration of 50 μM
Protocol: A sample of the bacterial cell Staphylococcus. aureus (ATCC number: 25923) or Escherichia. coli (ATCC number: 25922) was removed from a cryo-freeze culture and cultured under aerobic conditions at 37° C. and 175 rpm overnight in an orbital shaker (MAXQ4000, Thermo Scientific, Dubuque, Iowa, USA). Growth was carried out in 20 mL Todd-Hewitt broth (Carl Roth, Karlsruhe, Germany) supplemented with 0.3% of yeast extract (AppliChem, Darmstadt, Germany).
Subsequently, dilutions (0, 5, 10, […] and 20% v/v of the overnight culture) and their absorptions were measured at 600 nm in triplicate for 100 μL (Infinite 200 M Pro, Tecan, Mannedorf, Switzerland). A calibration graph (Microsoft Excel) was used to calculate the volume which was required to produce 20 mL of a culture with an absorption of 0.05 at 600 nm. The volume calculated for the overnight culture was topped up with Todd-Hewitt broth (composition as above) to 20 mL and incubated for two hours at 37° C. with constant movement (175 rpm, MAXQ4000). The cultures were then in the exponential growth phase; the absorption at 600 nm was between 0.3 and 0.45.
A 2-hour culture was divided into 1800 μL aliquots. After centrifuging at 20° C., 830 rcf, 5 min (5417R centrifuge, Eppendorf, Hamburg, Germany), the pellets were re-suspended in phosphate buffer (Dulbeccos' Modified Phosphate Saline, DPBS, Sigma-Aldrich) with either 10 or 50 μM of the corresponding photosensitizer, wherein the final volume was kept at 1800 μL.
The solutions obtained were immediately incubated on the orbital shaker (see above for parameters) for 5 or 25 minutes.
Three controls were run at the same time for each photosensitizer. The “light only” control contained DPBS without photosensitizer. The “photosensitizer only” (“PS only”) control was incubated like the PDI samples, but not irradiated and kept strictly in darkness. A further control (double negative, “Co−/−”), received neither light nor photosensitizer.
After the incubation, duplicates of the samples (500 μL each) were transferred into a 24-well microtitre plate (Cellstar, Greiner Bio-One, Frickenhausen, Germany). The “PS only” and “Co −/−” samples were placed in their own microtitre plate which was packed in aluminium foil so as to be lightproof.
The irradiation was carried out under constant shaking (MTS4, IKA, Staufen, Germany, 175 rpm) from below on a LED array with maximum homogeneity of the lighting surface. All of the controls were shaken in the same manner. The technical data for the light source are shown in Table 2; the total dose of light applied was 33.8 J/cm^2.
The determination of the colony forming units (CFU) was carried out in accordance with the method published by Miles and Misra (Miles, A A; Misra, S S, Irwin, J O (1938 Nov.). “The estimation of the bactericidal power of the blood” The Journal of hygiene 38 (6): 732-49). In this regard, serial dilutions (1:10) of the corresponding bacterial suspension were produced in DPBS. 5×10 μL of each bacterial dilution was then dripped onto Todd-Hewitt plates (with broth, additional 1.5% agar (Agar-Agar, Kobe I, Roth, Karlsruhe, Germany) and incubated at 37° C. for 24 h. Next, the number of surviving colony forming units was determined. All of the tests were carried out four times.
The photosensitizers were tested against the bacterial strain E. coli ATCC 25922. FIGS. 1-20 show the measured surviving colony forming units (CFU).
The average reference control (arithmetic mean with standard deviation) (no light, no PS) was 3.6×10^8/mL. The logarithmic reduction after illumination is shown with respect to the reference control. The respective upper value, indicated by a *, refers to an incubation period of 5 min and the respectively lower value, indicated by a #, refers to an incubation period of 25 min.

[1] = 5 min, 10 μM, incubation period 5 min (upper value, *), light dose 33.8 J/cm^2, approx. 435 nm, 60 min at 9.4 mW/cm^2, vs reference control
[2] = 5 min, 50 μM, incubation period 5 min (upper value, *), light dose 33.8 J/cm^2, approx. 435 nm, 60 min at 9.4 mW/cm^2, vs reference control
[3] = 25 min, 10 μM, incubation period 25 min (lower value), light dose 33.8 J/cm^2, approx. 435 nm, 60 min at 9.4 mW/cm^2, vs reference control
[4] = 25 min, 50 μM, incubation period 25 min (lower value), light dose 33.8 J/cm^2, approx. 435 nm, 60 min at 9.4 mW/cm^2, vs reference control
[5] = 10 μM, incubation period 5 min (upper value, *), light dose 33.8 J/cm^2, approx. 435 nm, 60 min at 9.4 mW/cm^2, vs reference control
[6] = 10 μM, incubation period 25 min (lower value), light dose 33.8 J/cm^2, approx. 435 nm, 60 min at 9.4 mW/cm^2, vs reference control
[7] = 50 μM, incubation period 5 min (upper value, *), light dose 33.8 J/cm^2, approx. 435 nm, 60 min at 9.4 mW/cm^2, vs reference control
[8] = 50 μM, incubation period 25 min (lower value), light dose 33.8 J/cm^2, approx. 435 nm, 60 min at 9.4 mW/cm^2, vs reference control

Molecule	log reduction at 10 µM [1]	log reduction at 50 µM [2]	log reduction at 10 µM [3]	log reduction at 50 µM [4]	also measured
COc1cc(/C=C/C(=O)CC(=O)/C=C/c2cc(I)c(OCCN)c(OC)c2)cc(I)c1OCCN [Curcumin 01c hydrochloride]	> 2	> 3	> 2	> 4	–
COc1cc(/C=C/C(=O)C2CCC/C(=C\c3ccc(OCCN)c(OC)c3)C2=O)ccc1OCCN (centres unmarked) [Curcumin 09b hydrochloride]	–	> 1	–	> 2	–
NCCOc1ccc(/C=C/C(=O)CC(=O)/C=C/c2ccc(OCCN)cc2)cc1 [Curcumin 0 hydrochloride]	> 4	> 6	> 5	> 6	–
NCCOc1cc(/C=C/C(=O)CC(=O)/C=C/c2cc(OCCN)c(OCCN)c(OCCN)c2)cc(OCCN)c1OCCN [Curcumin 05 hydrochloride]	> 4	> 7	> 4	> 6	–
COc1cc(/C=C/C(=O)CC(=O)/C=C/c2ccc(OCCOCCN)c(OC)c2)ccc1OCCOCCN [Curcumin 02 hydrochloride]	> 2	> 6	> 4	> 7	–
COc1cc(/C=C/C(=O)CC(=O)/C=C/c2ccc(OCCNC(=N)N)c(OC)c2)ccc1OCCNC(=N)N [Curcumin 10b hydrochloride]	> 5	> 7	> 4	> 6	–
COc1cc(/C=C/C(=O)CC(=O)/C=C/c2ccc(OCCC[N+](C)(C)C)c(OC)c2)ccc1OCCC[N+](C)(C)C [Curcumin 10a hydrochloride, 3,3′-(4,4′-((1E,6E)-3,5-dioxohepta-1,6-diene-1,7-diyl)bis(2-methoxy-4,1-phenylene))bis(oxy)bis(N,N,N-trimethylpropan-1-aminium) chloride]	–	–	–	–	log reduction at 10 µM (5 min): > 1; log reduction at 50 µM (5 min): > 5; log reduction at 10 µM (25 min): > 1; log reduction at 50 µM (25 min): > 5
COc1ccc(/C=C/C(=O)CC(=O)/C=C/c2ccc(OCCN)c(OCCN)c2)cc1OCCN [Curcumin 13b hydrochloride]	> 7	> 7	> 7	> 7	–
COc1cc(/C=C/C(=O)CC(=O)/C=C/c2ccc(OCCC[n+]3ccccc3)c(OC)c2)ccc1OCCC[n+]1ccccc1 [Curcumin 10c hydrochloride, 1,1′-(3,3′-(4,4′-((1E,6E)-3,5-dioxohepta-1,6-diene-1,7-diyl)bis(2-methoxy-4,1-phenylene))bis(oxy)bis(propane-3,1-diyl))dipyridinium chloride]	> 4	> 7	> 5	> 7	–
COc1ccc(/C=C/C(=O)CC(=O)/C=C/c2ccc(OCCN)c(OC)c2)cc1OC [Curcumin 11b hydrochloride]	~1	~3	> 1	> 3	–
(1E,6E)-1,7- bis(4-(2- aminoethoxy)-3- methoxy- phenyl)hepta-1,6- diene-3,5-dione hydrochloride- zinc complex [Curcumin 01a zinc complex]	–	–	–	–	Effectiveness against E. Coli: Reduction in CFU in log10 at concentration of 10 μM [5]: >3* log10; Effectiveness against E. Coli: Reduction in CFU in log10 at concentration of 10 μM [6]: >2 log10; Effectiveness against E. Coli: Reduction in CFU in log10 at concentration of 50 μM [7]: >5* log10; Effectiveness against E. Coli: Reduction in CFU in log10 at concentration of 50 μM [8]: >5 log10
COc1cc(/C(C)=C(\C)C(=O)CC(=O)/C(C)=C(\C)c2ccc(OCCN)c(OC)c2)ccc1OCCN [Curcumin 14b hydrochloride]	–	–	–	> 1	–
NCCOc1cc(/C=C/C(=O)CC(=O)/C=C/c2ccc(OCCOCCOCCO)c(OCCN)c2)ccc1OCCOCCOCCO [Curcumin 08 hydrochloride]	–	~1	–	> 1	–
NCCCOc1ccc(/C=C/C(=O)CC(=O)/C=C/c2ccc(OCCCN)c(OCc3ccccc3)c2)cc1OCc1ccccc1 [Curcumin 04 hydrochloride]	> 1	> 3	> 3	> 4	–
Cc1cc(/C=C/C(=O)CC(=O)/C=C/c2ccc(OCCN)c(C)c2)ccc1OCCN [Curcumin 01e hydrochloride]	> 5	> 4	> 5	> 7	–
Bis[(1E,6E)-1,7- bis(4-(2- aminoethoxy)-3- methoxy- phenyl)hepta-1,6- diene-3,5-dione hydrochloride] boron complex [Roseo-curcumin 01a hydrochloride]	–	–	–	–	Effectiveness against E. Coli: Reduction in CFU in log10 at concentration of 10 μM [5]: >5* log10; Effectiveness against E. Coli: Reduction in CFU in log10 at concentration of 10 μM [6]: >5 log10; Effectiveness against E. Coli: Reduction in CFU in log10 at concentration of 50 μM [7]: >7* log10; Effectiveness against E. Coli: Reduction in CFU in log10 at concentration of 50 μM [8]: >6 log10
NCCOc1ccc(/C=C/C(=O)CC(=O)/C=C/c2ccc(OCCN)c3ccccc23)c2ccccc12 [Curcumin 12a hydrochloride]	> 1	> 6	> 4	> 6	–
COc1cc(OCCN)ccc1/C=C/C(=O)CC(=O)/C=C/c1ccc(OCCN)cc1OC [Curcumin 01b hydrochloride]	> 2	> 5	> 3	> 7	–
